Biological target: T1, HIPK2 (Homo sapiens, UniProt Q9H2X6)
T1 construct: purchased Thermo Fisher Scientific (Life Technologies) SelectScreen
Assay: SelectScreen Z'LYTE
Assay type: biochemical
Method in brief: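 Compound tested in SelectScreen activity assays, Z'LYTE for CSF1R, CDK1/cyclin B and MAP2K6 and Adapta for CAMK1. ATP for CAMK1 was listed as 10, and Km app was used for CSF1R. Results are expressed in percent.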

T1 sequence (Q9H2X6 whole entry): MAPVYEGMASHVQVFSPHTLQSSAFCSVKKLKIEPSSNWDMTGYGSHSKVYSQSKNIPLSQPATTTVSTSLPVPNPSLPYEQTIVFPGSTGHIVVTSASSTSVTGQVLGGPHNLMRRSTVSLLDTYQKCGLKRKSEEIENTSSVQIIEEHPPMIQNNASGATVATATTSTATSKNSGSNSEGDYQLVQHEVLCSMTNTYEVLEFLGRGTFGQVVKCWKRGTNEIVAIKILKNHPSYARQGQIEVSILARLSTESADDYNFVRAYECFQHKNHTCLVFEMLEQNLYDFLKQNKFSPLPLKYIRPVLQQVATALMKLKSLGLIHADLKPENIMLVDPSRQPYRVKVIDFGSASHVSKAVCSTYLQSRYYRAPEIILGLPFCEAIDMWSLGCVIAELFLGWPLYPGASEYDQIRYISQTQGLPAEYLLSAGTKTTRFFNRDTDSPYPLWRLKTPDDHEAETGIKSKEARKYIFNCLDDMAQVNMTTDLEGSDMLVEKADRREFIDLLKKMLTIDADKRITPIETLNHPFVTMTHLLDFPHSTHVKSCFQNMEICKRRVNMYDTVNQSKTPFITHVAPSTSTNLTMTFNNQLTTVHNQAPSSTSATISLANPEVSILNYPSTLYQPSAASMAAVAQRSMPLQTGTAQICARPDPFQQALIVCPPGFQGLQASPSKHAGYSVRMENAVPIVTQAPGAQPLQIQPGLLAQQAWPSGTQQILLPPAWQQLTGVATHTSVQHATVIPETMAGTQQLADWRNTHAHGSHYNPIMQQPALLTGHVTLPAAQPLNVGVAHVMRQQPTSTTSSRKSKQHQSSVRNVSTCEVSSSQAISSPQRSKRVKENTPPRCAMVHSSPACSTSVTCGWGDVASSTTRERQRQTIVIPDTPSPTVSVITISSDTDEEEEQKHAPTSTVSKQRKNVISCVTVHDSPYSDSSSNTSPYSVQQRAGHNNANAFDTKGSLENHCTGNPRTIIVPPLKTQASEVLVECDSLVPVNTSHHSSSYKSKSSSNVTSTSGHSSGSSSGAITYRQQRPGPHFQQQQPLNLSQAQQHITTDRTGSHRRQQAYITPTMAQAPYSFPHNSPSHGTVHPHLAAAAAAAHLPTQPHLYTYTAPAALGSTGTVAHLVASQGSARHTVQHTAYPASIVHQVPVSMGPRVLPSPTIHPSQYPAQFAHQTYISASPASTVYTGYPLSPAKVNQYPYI

## CN(C(=O)CN1CCOCC1)c1ccc2sc3c(-c4cccc5c(=O)cc(N6CC7CCC(C6)O7)oc45)cccc3c2c1 [NU5455]
  inhibition at 1 µM: 7.8%

Source: paper PMC6934184, “Selective DNA-PKcs inhibition extends the therapeutic index of localized radiotherapy and chemotherapy” (The Journal of Clinical Investigation, 2019)
